The values that follow come from patent US20180147161A1, “MULTIDRUG BRITTLE MATRIX COMPOSITIONS” (BOARD OF REGENTS, THE UNIVERSITY OF TEXAS SYSTEM, priority 2015, published 2018).

For data set [1] the following is noted: cited from earlier work.
A short description of data set [2]: Particle size distribution by laser diffraction. It is filed as physicochemical. The note with it: [(D(90)−D(10)]/D(50)).
Data set [3] in a line: BET specific surface area of triple therapy materials. It is filed as physicochemical. Conditions: for SSA: after jet milling. The protocol:
Powder porosity was determined through the measurement of the specific surface area (SSA) using a Monosorb MS-22 rapid surface area analyzer (Quantachrome Instruments, Boynton Beach, Fla.). The instrument uses a modified BET equation for SSA determination. Samples were degassed in a Thermoflow™ Degasser for at least 2 hours at 25° C. using 30% nitrogen in helium as the […].

The nature of data set [4]: Particle size distribution by laser diffraction. It is filed as physicochemical. Conditions: for Particle size D10 / Particle size D50 / Particle size D90: laser diffraction. The protocol: Measurement of particle size distributions of budesonide, tiotropium bromide and formoterol fumarate before and after jet milling were measured by laser diffraction (HELOS, Sympatec GmbH, Clausthal-Zellerfelg, Germany). A small amount of formoterol fumarate and Tiotropium bromide were separately dispersed in 10 mL 0.01% tween 80 mineral oil and a small amount of budesonide was dispersed in 10 mL 0.01% tween 80 in deionized water. The samples were sonicated for 5 minutes and diluted with enough solvent to produce light obscuration in the range of 15-20%. The sizes reported are average values of at least 3 measurements. The results are presented as D(x) and span, where X is the cumulative percentile of particles under the referred size (e.g. D(50) corresponds to the median diameter of the particles). Span is a measurement of particle size distribution calculated as [(D(90)−D(10)]/D(50).

Where two headings read alike, the source gives them in different places.

In the case of `C[C@@H]1C[C@H]2[C@@H]3CCC4=CC(=O)C=C[C@]4(C)[C@@]3(Cl)[C@@H](O)C[C@]2(C)[C@@]1(OC(=O)c1ccco1)C(=O)CCl` [mometasone furoate], the Solubility in water entry in data set [1] is “practically insoluble”.

For `OC[C@@H](O)[C@@H](O)[C@H](O)[C@H](O)CO` [Mannitol, D-(+)-Mannitol], the Span in data set [2] turned out to be 1.80. The “SSA ± SD” value in data set [3] turned out to be 0.22 ± 0.001 m^2/g. The molecule also returned a Span in data set [4] ([(D(90)−D(10)]/D(50))) of 1.8. Besides, in data set [4], the “Particle size D10” value is given as 6.88 ± 0.07 μm, the “Particle size D50” value came to 52.70 ± 0.59 μm and the “Particle size D90” value is 101.91 ± 0.41 μm. In data set [4] (listed as mannitol), the “Particle size D50” value is recorded as 52.70±0.59 μm.

Regarding `COc1ccc(C[C@@H](C)NC[C@H](O)c2ccc(O)c(NC=O)c2)cc1.COc1ccc(C[C@@H](C)NC[C@H](O)c2ccc(O)c(NC=O)c2)cc1.O=C(O)/C=C/C(=O)O` [jet milled formoterol fumarate, formoterol fumarate], the “SSA ± SD” value in data set [3] is 5.08 ± 0.26 m^2/g. This molecule came in with a Span in data set [4] ([(D(90)−D(10)]/D(50))) of 1.96. Moreover, in data set [4], the “Particle size D10” value is 1.45 ± 1.01 μm, the “Particle size D50” value was determined as 4.51 ± 0.02 μm and the “Particle size D90” value is 10.29 ± 0.07 μm.

For the molecule `C[N+]1(C)[C@@H]2C[C@@H](OC(=O)C(O)(c3cccs3)c3cccs3)C[C@H]1[C@@H]1O[C@@H]12` [Tiotropium bromide, tiotropium bromide], the Span in data set [2] was 2.14. In data set [3], the “SSA ± SD” value is 2.08 ± 0.13 m^2/g and the SSA amounted to 2.86±0.11 m^2/g. Besides, the “SSA ± SD” value in data set [3] (listed as tiotropium) was found to be 2.08±0.13 m^2/g. This molecule also returned a Span in data set [4] ([(D(90)−D(10)]/D(50))) of 2.14. In data set [4] (after jet milling), this molecule had a D50 of 4.65±0.04 μm and a Span of 2.0. In data set [4], the “Particle size D10” value is 1.10 ± 0.01 μm, the “Particle size D50” value is reported as 5.14 ± 0.03 μm and the “Particle size D90” value was found to be 12.11 ± 0.07 μm. Further, in data set [4] (listed as tiotropium), the “Particle size D50” value is on record as 5.14±0.03 μm.

In the case of `OCc1cc(C(O)CNCCCCCCOCCCCc2ccccc2)ccc1O` (centres unmarked) [salmeterol xinafoate], in data set [1], the Solubility in water result is “sparingly soluble”.

With `C[N+]1(C)[C@@H]2C[C@@H](OC(=O)C(O)(c3cccs3)c3cccs3)C[C@H]1[C@@H]1O[C@@H]12` [Jet milled tiotropium bromide, tiotropium bromide], the “SSA ± SD” value in data set [3] amounted to 2.86 ± 0.11 m^2/g. Also, the Span in data set [4] ([(D(90)−D(10)]/D(50))) was 2.0. Also, in data set [4], the “Particle size D10” value stood at 1.09 ± 0.79 μm, the “Particle size D50” value is listed as 4.65 ± 0.04 μm and the “Particle size D90” value is on record as 10.39 ± 0.04 μm.

Molecule `COc1ccc(C[C@@H](C)NC[C@H](O)c2ccc(O)c(NC=O)c2)cc1.COc1ccc(C[C@@H](C)NC[C@H](O)c2ccc(O)c(NC=O)c2)cc1.O=C(O)/C=C/C(=O)O` [Formoterol furmarate, formoterol fumarate] came in with a Span in data set [2] of 7.75. Also, in data set [3], the “SSA ± SD” value amounted to 2.97 ± 0.05 m^2/g and the SSA was determined as 5.08±0.26 m^2/g. The “SSA ± SD” value in data set [3] (listed as formoterol) amounted to 2.97±0.05 m^2/g. Besides, the Span in data set [4] ([(D(90)−D(10)]/D(50))) was determined as 7.75. In data set [4] (after jet milling), this molecule registered a D50 of 4.51±0.02 μm and a Span of 1.96. Moreover, in data set [4], the “Particle size D10” value turned out to be 1.16 ± 0.05 μm, the “Particle size D50” value was 6.27 ± 0.97 μm and the “Particle size D90” value was determined as 49.78 ± 7.84 μm. For the same molecule, the “Particle size D50” value in data set [4] (listed as Formoterol) was 6.27±0.97 μm.

For `O.OC[C@H]1O[C@@H](O[C@H]2[C@H](O)[C@@H](O)C(O)O[C@@H]2CO)[C@H](O)[C@@H](O)[C@H]1O` (some centres unmarked) [Lactose monohydrate, lactose monohydrate], in data set [3], the “SSA ± SD” value is on record as 0.34 ± 0.03 m^2/g. Further, the Span in data set [4] ([(D(90)−D(10)]/D(50))) was determined as 2.43. Moreover, the “Particle size D10” value in data set [4] is 4.13 ± 0.11 μm. In addition, in data set [4], the “Particle size D90” value came out at 100.9 ± 0.27 μm. In addition, the “Particle size D50” value in data set [4] (listed as lactose, monohydrate) stood at 39.78±1.32 μm; in data set [4] (monohydrate), 39.78 ± 1.32 μm.
